Among the test systems are MDA-MB-435; T-47D breast; MCF7 breast; MDA-N; XF 498 CNS; M19-MEL melanoma; DLD-1 colon.
Common to all, as to assay: NCI anticancer screen, dose series, 48 h

Structures are written as SMILES. Values joined by “and” are separate entries in the source; they are usually repeats but may differ in a detail not shown here. Equal values may be shown once.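 Method: 48-hour compound exposure of cells in 96-well plates, five concentrations, linear interpolation of endpoints. The concentration for 50% growth inhibition is given as GI50. TGI: total growth inhibition.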

Regarding `Nc1ccc(/C=C/C(=O)NCc2cc3cc(-c4ccc(C(=O)N5CCC(F)(F)CC5)cc4)cc(-c4ccc(F)cc4)c3o2)cn1`, the GI50 with MDA-MB-435 is 0.752 µM; with T-47D breast, 0.784 µM; with MCF7 breast, 14.4 µM. In addition, the TGI in the experiment on MDA-MB-435, in the experiment on T-47D breast and in the experiment on MCF7 breast was above 100 µM throughout.
With `CCCCn1c(-c2ccc(C(=O)O/N=C(\N)c3ccc4c(c3)OCO4)cc2)nc(-c2ccccc2)c1-c1ccccc1`, the results for the GI50 in the experiment with MDA-MB-435, in the experiment on T-47D breast and in the experiment on MCF7 breast were 1.93 µM, 1.85 µM and 2.38 µM, respectively. The results for the TGI in the experiment with MDA-MB-435, with T-47D breast and with MCF7 breast were 3.9 µM, 4.95 µM and 8.83 µM, respectively.
As to `c1ccc2[nH]c(-c3ccc(Nc4nc(N5CCCCC5)nc(N5CCOCC5)n4)cc3)nc2c1`, the GI50 with MDA-MB-435 is 2.06 µM; with T-47D breast it was 1.96 µM; in the experiment on MCF7 breast, 2.4 µM. In addition, the TGI in the experiment on MDA-MB-435 is 4.59 µM; in the experiment on T-47D breast it was 4.58 µM; in the experiment with MCF7 breast it was 7.9 µM.
On to `CCNC(=O)c1noc(-c2cc(C(C)C)c(O)cc2O)c1-c1ccc(CN2CCOCC2)cc1`, for which the GI50 in the experiment with MDA-MB-435 is below 0.0167 µM; in the experiment with T-47D breast it was 0.0382 µM; with MCF7 breast, below 0.0194 µM. Moreover, the TGI is 19.5 µM in the experiment on MDA-MB-435, 47.8 µM in the experiment on T-47D breast and above 55 µM with MCF7 breast.
For `COc1cnc2c(c1)C(=O)c1c-2n(CCCN2CCN(C)CC2)c(=O)c2cc([N+](=O)[O-])ccc12`, the results for the GI50 in the experiment on MDA-MB-435, in the experiment with T-47D breast and in the experiment on MCF7 breast were 0.166 µM, 1.77 µM and 0.0162 µM, respectively. Besides, the TGI with MDA-MB-435 is 0.334 µM; in the experiment on T-47D breast, 4.01 µM; in the experiment with MCF7 breast, 1.2 µM.
In the case of `O=C(O)[C@@H](Cc1ccc2ccccc2c1)NC(=O)n1c2ccccc2c2ccccc21`, the GI50 is 1.09 µM in the experiment with MDA-MB-435, 11.6 µM in the experiment with T-47D breast and 2.42 µM in the experiment with MCF7 breast. The TGI with MDA-MB-435 is 3.39 µM; with T-47D breast, above 100 µM; in the experiment with MCF7 breast, above 100 µM.
For `O=C(O)[C@H](c1ccccc1)[C@@H](C(=O)O)c1ccccc1`, the TGI with MDA-MB-435, in the experiment on T-47D breast, with MCF7 breast and in the experiment with MDA-N was above 100 µM throughout.
Regarding `CCC1=CC2CN(C1)Cc1c([nH]c3ccccc13)[C@@](C(=O)OC)(c1cc3c(cc1OC)N(C)[C@H]1[C@@](O)(C(=O)OC)[C@H](OC(C)=O)[C@]4(CC)C=CCN5CC[C@]31[C@@H]54)C2` (stereo partly drawn), the results for the GI50 with MDA-MB-435, with T-47D breast and in the experiment on MCF7 breast were below 0.005 µM, 0.00507 µM and below 0.005 µM, respectively. Also, the TGI with T-47D breast is 50 µM; with MCF7 breast, 50 µM and > 100 µM.
Take `O=C(O)c1ccccc1/C=N/N=C1c2ccccc2-c2ccccc21`: the TGI with MDA-MB-435, with T-47D breast, in the experiment with MCF7 breast and with MDA-N was above 100 µM each time.
On to `c1c[nH]c(CN2CCOCC2)n1`, for which the TGI in the experiment with MDA-MB-435, with T-47D breast, in the experiment with MCF7 breast and in the experiment on MDA-N was above 100 µM in each case.
As to `C[C@H]1CCCC(O)C(O)[C@@H]2C[C@H](O[Si](C)(C)C(C)(C)C)C[C@H]2[C@H](O[Si](C)(C)C(C)(C)C)C(O)C(O)C(=O)O1` (stereo partly drawn), the GI50 in the experiment with MDA-MB-435 was above 100 µM; with T-47D breast, 28.4 µM; in the experiment with MCF7 breast, 50.2 µM; with MDA-N, above 100 µM. Further, the TGI in the experiment on MDA-MB-435, in the experiment on T-47D breast, in the experiment on MCF7 breast and in the experiment on MDA-N was above 100 µM in each case.
Consider `CC(=O)c1ccc(O)c(CN(C2CCCCC2)C2CCCCC2)c1O`, for which the TGI with MDA-MB-435, in the experiment on T-47D breast, in the experiment with MCF7 breast and with MDA-N was above 100 µM each time.
As for `Cc1ccc(-c2nc3nc(-c4ccc(F)cc4)nc(N4CCCNCC4)c3o2)cc1`, in the experiment with MDA-MB-435, the GI50 is 1.71 µM and the TGI stood at 3.13 µM. Also, in the experiment with MCF7 breast, the GI50 was 1.23 µM and the TGI turned out to be 2.96 µM.
Regarding `O=S(=O)(CCCl)c1ccc(Cl)cc1`, the GI50 was 2.7 µM with MDA-MB-435, 3.69 µM in the experiment on T-47D breast and 2.19 µM with MCF7 breast. The TGI amounted to 12.6 µM in the experiment with MDA-MB-435, 19.9 µM in the experiment on T-47D breast and 10.3 µM in the experiment on MCF7 breast.
As to `O=C1OCC2=C1C(c1ccccc1)c1cc3c(cc1N2CCO)OCO3` (stereo not drawn), the GI50 with MDA-MB-435 is 0.563 µM; with T-47D breast, 3.12 µM; with MCF7 breast, 1.76 µM. The TGI in the experiment on MDA-MB-435 was 3.25 µM; in the experiment with T-47D breast it was above 50 µM; in the experiment on MCF7 breast, above 50 µM.
For the molecule `COc1cc(NCCCCCCCNC(C)C)c2nccc(C)c2c1`, the GI50 is 6.95 µM in the experiment with MDA-MB-435, 5.44 µM with T-47D breast and 2.68 µM in the experiment on MCF7 breast. Further, the TGI in the experiment with MDA-MB-435 was 21.2 µM; with T-47D breast it was 19.8 µM; in the experiment on MCF7 breast, 10.8 µM.
As for `COc1ccc2c(c1)/C(=C/c1cc(OC)c(OC)c(OC)c1)C(=O)N2`, the GI50 with MDA-MB-435 was 0.0318 µM; with T-47D breast, 0.385 µM; in the experiment on MCF7 breast, 0.35 µM. Further, the values for the TGI with MDA-MB-435 and in the experiment with MCF7 breast were 0.253 µM and above 100 µM, respectively.
In the case of `CCOC(=O)NC(=O)c1cn(CCN2CCN(C(=O)CCCCCCCCCCC(=O)N3CCN(CCn4cc(C(=O)NC(=O)OCC)c(=O)[nH]c4=O)CC3)CC2)c(=O)[nH]c1=O`, the TGI with XF 498 CNS, in the experiment on M19-MEL melanoma and in the experiment with DLD-1 colon was above 100 µM throughout.
With `N#Cc1ccc(NC(=O)C(CC(=O)OCc2ccccc2)NC(=O)OCc2ccccc2)cc1` (stereo not drawn), the GI50 in the experiment on MDA-MB-435, in the experiment with MCF7 breast and in the experiment on MDA-N was above 100 µM each time. The TGI in the experiment with MDA-MB-435, with MCF7 breast and in the experiment with MDA-N was above 100 µM each time.
Take `N#CNC(N)=Nc1ccc(Cl)cc1`: the TGI in the experiment on MDA-MB-435, in the experiment on T-47D breast, with MCF7 breast and in the experiment on MDA-N was above 100 µM each time.
Consider `CC1(C)CC2C(=O)c3ccccc3NC2c2ccccc21` (stereo not drawn), for which the TGI in the experiment with T-47D breast and in the experiment with MCF7 breast was above 100 µM throughout.
On to `Cc1ccc(NC(=O)c2cc(S(=O)(=O)N3C(=O)NC(=O)NS3(=O)=O)c(S)cc2Cl)cc1`, for which the GI50 with MDA-MB-435 was 17.1 µM; in the experiment with T-47D breast it was 21.4 µM; in the experiment on MCF7 breast, 28 µM. The results for the TGI in the experiment on MDA-MB-435, in the experiment on T-47D breast and in the experiment on MCF7 breast were 35.7 µM, 81.3 µM and above 100 µM, respectively.

(Values after PubChem BioAssay (NCI).)
